18 compounds from PMC6896485, “Aryl derivatives of 3H-1,2-benzoxathiepine 2,2-dioxide as carbonic anhydrase inhibitors” (Journal of Enzyme Inhibition and Medicinal Chemistry, 2019) can be followed below.

The structures appear in SMILES notation. Read-outs that look alike come from different tables or passages of the source. Some results are limits rather than exact numbers.

One experiment addresses T1, hCA IX (Homo sapiens, UniProt Q16790).
T1 construct: gene CA9; recombinant, obtained in-house
Description: stopped-flow CO2 hydration. It counts as biochemical. The settings on record: read-out: KI (nM) ^* / CA IX. From the text: stopped-flow CO2 hydration on hCA IX

In the next experiment the target is T2, hCA XII (Homo sapiens, UniProt O43570).
T2 construct: gene CA12; recombinant, obtained in-house
Description: stopped-flow CO2 hydration. It counts as biochemical. The settings on record: read-out: KI (nM) ^* / CA XII. From the text: (§1) stopped-flow CO2 hydration on hCA XII

The nature of experiment [1]: stopped-flow CO2 hydration. The settings on record: read-out: KI (nM) ^* / CA I. It counts as biochemical, Homo sapiens.
From the text: as §1

The mark [2] stands for this setting: CO2 […], Hepes pH […] Na2SO4, […] h preincubation at room temperature.

T2 sequence (O43570 25-354): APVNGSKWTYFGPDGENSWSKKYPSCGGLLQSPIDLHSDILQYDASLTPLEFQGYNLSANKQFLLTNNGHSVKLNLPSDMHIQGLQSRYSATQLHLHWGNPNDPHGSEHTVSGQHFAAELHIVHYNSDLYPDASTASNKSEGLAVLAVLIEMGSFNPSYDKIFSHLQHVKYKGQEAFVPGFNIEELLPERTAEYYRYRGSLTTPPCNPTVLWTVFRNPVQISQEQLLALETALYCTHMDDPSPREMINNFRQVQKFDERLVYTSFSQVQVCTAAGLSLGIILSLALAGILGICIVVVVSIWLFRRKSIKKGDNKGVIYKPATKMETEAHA

As to `O=S1(=O)CC=Cc2cc(-c3ccc(C(F)(F)F)cc3)ccc2O1` [compound 11, 7–(4-(Trifluoromethyl)phenyl)-3H-1,2-benzoxathiepine 2,2-dioxide], the Ki on hCA IX came out at 221 nM; on hCA XII, 4020 nM.
Taken in the same sequence, the figures for `CCOC(=O)c1ccc(-c2ccc3c(c2)OS(=O)(=O)CC=C3)cc1` [compound 25, 8–(4-(Ethoxycarbonyl)phenyl)-3H-1,2-benzoxathiepine 2,2-dioxide] were 79.8 nM and 289 nM.
Taken in the same sequence, the figures for `O=S1(=O)CC=Cc2cc(I)ccc2O1` [compound 7, 7-Iodo-3H-1,2-benzoxathiepine 2,2-dioxide] were 66.2 nM and 455 nM.
As to `O=S1(=O)CC=Cc2ccc(-c3ccc(C(F)(F)F)cc3)cc2O1` [compound 24, 8–(4-(Trifluoromethyl)phenyl)-3H-1,2-benzoxathiepine 2,2-dioxide], the Ki on hCA IX (setting [2]) was 44 nM; on hCA XII, 248 nM.
For `CCOC(=O)c1ccc(-c2ccc3c(c2)C=CCS(=O)(=O)O3)cc1` [compound 12, 7–(4-(Ethoxycarbonyl)phenyl)-3H-1,2-benzoxathiepine 2,2-dioxide], the Ki was 621 nM at hCA IX and 2400 nM on hCA XII.
For the compound `CCOC(=O)c1ccc(-c2cccc3c2OS(=O)(=O)CC=C3)cc1` [compound 34, 9–(4-(Ethoxycarbonyl)phenyl)-3H-1,2-benzoxathiepine 2,2-dioxide], the Ki on hCA IX is 16400 nM; in experiment [1] it was over 100000 nM.
In the case of `O=S1(=O)CC=Cc2cccc(Br)c2O1` [compound 29, 9-Bromo-3H-1,2-benzoxathiepine 2,2-dioxide], the Ki at hCA IX was 755 nM; at hCA XII, 3820 nM.
Turning to `O=S1(=O)CC=Cc2cccc(-c3ccc(C(F)(F)F)cc3)c2O1` [compound 33, 9–(4-(Trifluoromethyl)phenyl)-3H-1,2-benzoxathiepine 2,2-dioxide], the Ki on hCA IX is 47100 nM; in experiment [1], over 100000 nM.
As to `O=S1(=O)CC=Cc2ccc(Br)cc2O1` [compound 20, 8-Bromo-3H-1,2-benzoxathiepine 2,2-dioxide], the Ki on hCA IX is 47.5 nM; on hCA XII, 133 nM.
Regarding `O=S1(=O)CC=Cc2ccc(-c3ccccc3)cc2O1` [compound 21, 8-Phenyl-3H-1,2-benzoxathiepine 2,2-dioxide], the Ki at hCA IX was 105 nM; at hCA XII, 473 nM.
For `O=S1(=O)CC=Cc2cccc(-c3ccccc3)c2O1` [compound 30, 9-Phenyl-3H-1,2-benzoxathiepine 2,2-dioxide], the figures for the Ki (at hCA IX; in experiment [1]) were 21100 nM and over 100000 nM, respectively.
On to `O=S1(=O)CC=Cc2ccc(-c3ccc(F)cc3)cc2O1` [compound 23, 8–(4-Fluorophenyl)-3H-1,2-benzoxathiepine 2,2-dioxide], for which the Ki on hCA IX came out at 95.2 nM; at hCA XII (setting [2]), 77.9 nM.
As to `COc1ccc(-c2ccc3c(c2)C=CCS(=O)(=O)O3)cc1` [compound 9, 7–(4-Methoxyphenyl)-3H-1,2-benzoxathiepine 2,2-dioxide], the Ki was determined as 408 nM at hCA IX and 2930 nM at hCA XII.
For the compound `O=S1(=O)CC=Cc2cccc(-c3ccc(F)cc3)c2O1` [compound 32, 9–(4-Fluorophenyl)-3H-1,2-benzoxathiepine 2,2-dioxide], the Ki on hCA IX was 33700 nM; in experiment [1], over 100000 nM.
In the case of `O=S1(=O)CC=Cc2cc(-c3ccccc3)ccc2O1` [compound 8, 7-Phenyl-3H-1,2-benzoxathiepine 2,2-dioxide], the Ki is 655 nM at hCA IX and 1380 nM at hCA XII.
For `O=S1(=O)CC=Cc2cc(-c3ccc(F)cc3)ccc2O1` [compound 10, 7–(4-Fluorophenyl)-3H-1,2-benzoxathiepine 2,2-dioxide], the figures for the Ki on hCA IX and at hCA XII were 331 nM and 890 nM, respectively.
On to `COc1ccc(-c2cccc3c2OS(=O)(=O)CC=C3)cc1` [compound 31, 9–(4-Methoxyphenyl)-3H-1,2-benzoxathiepine 2,2-dioxide], for which the figures for the Ki (on hCA IX; in experiment [1]) were 60900 nM and over 100000 nM, respectively.
As to `COc1ccc(-c2ccc3c(c2)OS(=O)(=O)CC=C3)cc1` [compound 22, 8–(4-Methoxyphenyl)-3H-1,2-benzoxathiepine 2,2-dioxide], the Ki amounted to 63.1 nM at hCA IX and 169 nM on hCA XII.
